Source: patent publication US8263649B2, “Benzofuran type derivatives, a composition comprising the same for treating or preventing cognitive dysfunction and the use thereof” (Medifron DBT Co., Ltd., priority 2006, dated 2012)

Legend:
[1] = molecular target: T1, aggregated beta amyloid Ab(1-42) (Homo sapiens, UniProt P05067); experiment: Inhibition test of beta amyloid aggregation lysis (Thioflavin T fluorescence); type: biochemical; conditions: FIG. 1
T1 construct: Synthetic beta amyloid, Ab(1-42) [Bachem Cat. No. H1368; H-Asp-Ala-Glu- Phe-Arg-His-Asp-Ser-Gly-Tyr; purchased Bachem H1368; host or cells: synthetic peptide
Procedure: Synthetic beta amyloid, Ab(1-42) [Bachem Cat. No. H1368; H-Asp-Ala-Glu- Phe-Arg-His-Asp-Ser-Gly-Tyr-Glu-Val-His-His-Gln-Lys-Leu-Val-Phe-Phe-Ala-Glu- Asp-Val-Gly-Ser-Asn-Lys-Gly-Ala-Ile-Ile-Gly-Leu-Met-Val-Gly-Gly-Val-Val-Ile- Ala-OH]) was dissolved in DMSO in order that it induces aggregation at the concentration of 25 microM for 1 week. The test group added with aggregated betaamyloid and test samples inhibiting the inhibition of aggregation and a control group added with only A were reacted together at room temperature for 1 hour on fluorescent black plate. ThT (Thioflavin T) was diluted with 50 mM glycine buffer solution to be […] and the diluted solutions were added to each well by 150 μl/well. The fluorescence intensity of each group was determined by microplate reader (SAFIRE, TECAN) at 450 nm excitation wavelength/480 nm emission wavelength after shaking together for 10 seconds.

[2] = system: ICR mouse administrated aggregated beta amyloid 1-42; experiment: AD acute model experiment - Y maze test; type: in vivo
Procedure: For passive avoidance test, male ICR mouse weighing 25 g purchased from Samtaco Co. was bred with five mice per cage and the cage was kept with following condition maintaining the temperature of 22±2° C. and the relative humidity of […] under the regularly controlled light/dark condition with an interval of 12 hours.
Synthetic beta amyloid 1-42 (BACHEM) was dissolved in DMSO in order to be 250 μm solution and diluted with PBS to […] and aggregated at 37° C. for four days (Passive Avoidance test) or six days (Y maze test).
Aggregated beta amyloid 1-42 was administrated into the mice according to the procedure disclosed in the literature (Lausen & Belknap, J. Pharmacol. Methods, 16 pp 355-357, 1986). […]
The Y-maze test was performed two days after the administration of beta-amyloid. […] Thereafter, the entering order of the mice into the pathway was observed and the entering time was determined when four limbs of the mice were entered within the pathway. To determine the spatial memory, the percentage of spontaneous alteration behavior was calculated by applying the measured alteration frequency to following empirical formula 1 and the frequency of actual alteration behavior was assigned once at the time that the mice had entered the three pathways continuously. […]

ChAT positive neuron = experiment: ChAT antibody staining of brain sections of transgenic mice; type: in vivo, mouse; conditions: FIG. 15
Procedure: (§1) 13 months old dementia model male mice expressing APPswe was used in the experiment and the mice was divided into two groups, i.e., control group consisting of 2 mice and test groups consisting of 4 mice. Each mouse had been fed with the feed mixed with 3 mg of compound IIb everyday for 4 months.
Four tissue sections per mouse were added to PBST to flocculate and then anti-ChAT was added thereto with a ratio of 1:100. The solution was reacted together for overnight at 4° C. and the tissues were washed with PBST. Secondary antibody (HRP conjugated […] IgG antibody) was added thereto and mixed together with the mixed ratio of 1:1000 at room temperature one hour before the reaction.
After washing again with PBST, the tissues were stained to brown color with DAB kit as a staining agent. The stained tissues were photographed using by optical microscope connecting with […] camera and then the number of the ChAT positive neuron in the tissues was determined.

A 42 = experiment: ELISA of beta-amyloid in brain of transgenic mice (A 42); type: in vivo, mouse; conditions: APPswe mice treated for 4 months
Procedure: as §1
At the end of behavior test, the brain of mouse was delivered and the left hemisphere was frozen to be used as a cryo-section material. The remaining right hemisphere was used to measure the formation of beta-amyloid according to the procedure disclosed in the literature (J. Neurosci, 21(12), pp 4183-4187, 2001). […]
The amount of beta-amyloid in the brains of mice was determined by […] ELISA method according to the manual provided from Biosource Co and ELISA kit (KHB 3482, Biosource Co.) was used in the experiment. […] The level of color reaction was determined at 450 nm using by spectrophotometer and the absolute amount of beta-amyloid in the samples was transformed by comparing with standard value. The brain of the mice treated with the compound 18b for 4 months was delivered and the amount of beta-amyloid in supernatant obtained from the dissolved brain tissue was determined according to ELISA method.

beta amyloid plaque = experiment: Congo Red staining of beta amyloid plaque in brain sections of transgenic mice; type: in vivo, mouse; conditions: FIG. 14

T1 sequence (P05067 672-713): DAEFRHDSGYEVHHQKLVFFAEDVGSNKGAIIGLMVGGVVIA

Structure (SMILES): COCCCc1ccc2oc(-c3ccc(OC)c(OC)c3)cc2c1 [Compound 18b, 2-(3,4-dimethoxy-phenyl)-5-(3-methoxy-propyl)-benzofuran]
- solubilizing activity of beta-amyloid [1]: potent solubilizing activity
- recovering effect on memory learning capacity damaged by beta-amyloid (Y maze, spontaneous alteration) ([2]; mice, oral, 50, 100 and 200 mg/kg, FIG. 2, FIG. 3): potent recovering effect on memory learning capacity damaged by beta-amyloid in a dose dependent manner
- effect on the memory learning capacity (Y maze), best dose group ([2]; treatment group with more than 100 mg/kg, FIG. 3): most excellent effect
- number of neuron (ChAT positive) in brain (ChAT positive neuron): slightly increased
- change of the amount of A 42 in brain (ELISA) (A 42): no difference
- numbers, size, and area of plaque in brain (beta amyloid plaque): significantly reduced
